Data reported in ChEMBL document CHEMBL1201862, “PubChem BioAssay data set” (2004).
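Five compound concentrations were applied to cells in 96-well plates for 48 hours; endpoints were derived by simple linear interpolation of the resulting dose-response curve. GI50 is the concentration that inhibits growth by half.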 Calls of active or inactive are those of the source. No stated cut-off is given here; in the data, active = GI50 up to about 1.1 µM and inactive = higher.

Columns and labels:
Test in all cases: NCI-60 cell line screen, 48 h
786-0 = tested on: 786-0
A498 = tested on: A498
A549 = tested on: A549
ACHN = tested on: ACHN
CAKI-1 = tested on: CAKI-1
CCRF-CEM = tested on: CCRF-CEM
COLO 205 = tested on: COLO 205
DLD-1 = tested on: DLD-1
DMS-114 = tested on: DMS-114
DMS-273 = tested on: DMS-273
EKVX = tested on: EKVX
HCT-116 = tested on: HCT-116
HCT-15 = tested on: HCT-15
HL-60 = tested on: HL-60
HOP-18 = tested on: HOP-18
HOP-62 = tested on: HOP-62
HOP-92 = tested on: HOP-92
HT-29 = tested on: HT-29
IGROV-1 = tested on: IGROV-1
K562 = tested on: K562
KM-20L2 = tested on: KM-20L2
KM12 = tested on: KM12
LXFL 529 = tested on: LXFL 529
M14 = tested on: M14
M19-MEL = tested on: M19-MEL
MOLT-4 = tested on: MOLT-4
Malme-3M = tested on: Malme-3M
NCI-H226 = tested on: NCI-H226
NCI-H23 = tested on: NCI-H23
NCI-H460 = tested on: NCI-H460
NCI-H522 = tested on: NCI-H522
OVCAR-3 = tested on: OVCAR-3
OVCAR-4 = tested on: OVCAR-4
OVCAR-5 = tested on: OVCAR-5
OVCAR-8 = tested on: OVCAR-8
RPMI-8226 = tested on: RPMI-8226
RXF 631 = tested on: RXF 631
SF-268 = tested on: SF-268
SF-295 = tested on: SF-295
SF-539 = tested on: SF-539
SK-MEL-28 = tested on: SK-MEL-28
SK-MEL-2 = tested on: SK-MEL-2
SK-MEL-5 = tested on: SK-MEL-5
SK-OV-3 = tested on: SK-OV-3
SN12C = tested on: SN12C
SNB-19 = tested on: SNB-19
SNB-75 = tested on: SNB-75
SNB-78 = tested on: SNB-78
SR = tested on: SR
SW-620 = tested on: SW-620
TK-10 = tested on: TK-10
U-251 = tested on: U-251
UACC-257 = tested on: UACC-257
UACC-62 = tested on: UACC-62
UO-31 = tested on: UO-31
XF498 = tested on: XF498
HCC 2998 = tested on: HCC 2998
LOX IMVI = tested on: LOX IMVI
RXF 393 = tested on: RXF 393

With `O=C(CCc1nnc(S)[nH]1)Nc1ccc(Cl)c(Cl)c1` the GI50 (786-0) was > 100 µM (inactive), the GI50 (A498) was > 100 µM (inactive) and the GI50 (A549) was 40.9 µM (inactive). The GI50 (ACHN) was 12.6 µM (inactive), the GI50 (CAKI-1) was > 100 µM (inactive) and the GI50 (CCRF-CEM) was 80.4 µM (inactive). The GI50 (COLO 205) was > 100 µM (inactive), the GI50 (DLD-1) was > 100 µM (inactive) and the GI50 (DMS-114) was 23.5 µM (inactive). The GI50 (DMS-273) was 19.8 µM (inactive), the GI50 (EKVX) was > 100 µM (inactive) and the GI50 (HCT-116) was 47 µM (inactive). For the same molecule, the GI50 (HCT-15) was 6.25 µM, the GI50 (HL-60) was 82.4 µM (inactive) and the GI50 (HOP-18) was > 100 µM (inactive). The GI50 (HOP-62) was 20 µM (inactive), the GI50 (HOP-92) was 53.2 µM (inactive) and the GI50 (HT-29) was > 100 µM (inactive). For the same molecule, the GI50 (IGROV-1) was 26.5 µM (inactive), the GI50 (K562) was 9.1 µM (inactive) and the GI50 (KM-20L2) was 6.12 µM (inactive). For the same molecule, the GI50 (KM12) was 21.9 µM (inactive), the GI50 (LXFL 529) was 13.2 µM (inactive) and the GI50 (M14) was 27.4 µM (inactive). The GI50 (M19-MEL) was 43.6 µM (inactive), the GI50 (MOLT-4) was 45.8 µM (inactive) and the GI50 (Malme-3M) was > 100 µM (inactive). For the same molecule, the GI50 (NCI-H226) was > 100 µM (inactive), the GI50 (NCI-H23) was 53.3 µM (inactive) and the GI50 (NCI-H460) was 90.8 µM (inactive). The GI50 (NCI-H522) was 23.4 µM (inactive), the GI50 (OVCAR-3) was 40.6 µM (inactive) and the GI50 (OVCAR-4) was 58.2 µM (inactive). The GI50 (OVCAR-5) was 33.8 µM (inactive), the GI50 (OVCAR-8) was > 100 µM (inactive) and the GI50 (RPMI-8226) was > 100 µM (inactive). The GI50 (RXF 631) was 72.3 µM (inactive), the GI50 (SF-268) was 42.8 µM (inactive) and the GI50 (SF-295) was 50.6 µM (inactive). The GI50 (SF-539) was 62.5 µM (inactive), the GI50 (SK-MEL-28) was 71.6 µM (inactive) and the GI50 (SK-MEL-2) was 6.18 µM (inactive). The GI50 (SK-MEL-5) was 14.1 µM (inactive), the GI50 (SK-OV-3) was > 100 µM (inactive) and the GI50 (SN12C) was > 100 µM (inactive). The GI50 (SNB-19) was > 100 µM (inactive), the GI50 (SNB-75) was 20 µM (inactive) and the GI50 (SNB-78) was > 100 µM (inactive). For the same molecule, the GI50 (SR) was 51.2 µM (inactive), the GI50 (SW-620) was 41.3 µM (inactive) and the GI50 (TK-10) was 79.4 µM (inactive). For the same molecule, the GI50 (U-251) was 99.5 µM (inactive), the GI50 (UACC-257) was 34.8 µM (inactive) and the GI50 (UACC-62) was 2.98 µM (inactive). The GI50 (UO-31) was 45.6 µM (inactive) and the GI50 (XF498) was > 100 µM (inactive).
With `COc1ccc(/C=C/c2cc(OC)cc(OC)c2)cc1` [TRISMETHOXYRESVERATROL] the GI50 (786-0) was 9.66 µM (inactive), the GI50 (A498) was 6.18 µM (inactive) and the GI50 (A549) was 6.32 µM (inactive). The GI50 (ACHN) was 7.08 µM (inactive), the GI50 (CAKI-1) was 4.6 µM (inactive) and the GI50 (CCRF-CEM) was 3.97 µM (inactive). The GI50 (COLO 205) was 3.41 µM (inactive), the GI50 (DLD-1) was 5.28 µM (inactive) and the GI50 (DMS-114) was 3.5 µM (inactive). For the same molecule, the GI50 (DMS-273) was 3.79 µM (inactive), the GI50 (EKVX) was > 22.4 µM (inactive) and the GI50 (HCC 2998) was 9.79 µM (inactive). For the same molecule, the GI50 (HCT-116) was 4.17 µM (inactive), the GI50 (HCT-15) was 4.57 µM and the GI50 (HL-60) was 2.56 µM (inactive). The GI50 (HOP-18) was > 24.3 µM (inactive), the GI50 (HOP-62) was 4.92 µM (inactive) and the GI50 (HOP-92) was 8.07 µM (inactive). For the same molecule, the GI50 (HT-29) was 3.88 µM (inactive), the GI50 (IGROV-1) was 6.44 µM (inactive) and the GI50 (K562) was 4.33 µM (inactive). The GI50 (KM-20L2) was 3.15 µM (inactive), the GI50 (KM12) was 4.17 µM (inactive) and the GI50 (LOX IMVI) was 6.7 µM (inactive). The GI50 (LXFL 529) was 4.86 µM (inactive), the GI50 (M14) was 6.53 µM (inactive) and the GI50 (M19-MEL) was 6.31 µM (inactive). For the same molecule, the GI50 (MOLT-4) was 4.51 µM (inactive), the GI50 (Malme-3M) was 6.12 µM (inactive) and the GI50 (NCI-H226) was 5.43 µM (inactive). For the same molecule, the GI50 (NCI-H23) was 6.98 µM (inactive), the GI50 (NCI-H460) was 3.73 µM (inactive) and the GI50 (NCI-H522) was 2.68 µM (inactive). The GI50 (OVCAR-3) was 3.3 µM (inactive), the GI50 (OVCAR-4) was 18.9 µM (inactive) and the GI50 (OVCAR-5) was 14 µM (inactive). The GI50 (OVCAR-8) was 22.1 µM (inactive), the GI50 (RPMI-8226) was 3.56 µM (inactive) and the GI50 (RXF 393) was 3.05 µM (inactive). The GI50 (RXF 631) was 4.2 µM (inactive), the GI50 (SF-268) was 7.93 µM (inactive) and the GI50 (SF-295) was 4.38 µM (inactive). For the same molecule, the GI50 (SF-539) was 3.54 µM (inactive), the GI50 (SK-MEL-28) was 3.82 µM (inactive) and the GI50 (SK-MEL-2) was 6.07 µM (inactive). The GI50 (SK-MEL-5) was 4.23 µM (inactive), the GI50 (SK-OV-3) was 4.14 µM (inactive) and the GI50 (SN12C) was 9.95 µM (inactive). The GI50 (SNB-19) was 20.7 µM (inactive), the GI50 (SNB-75) was 4.82 µM (inactive) and the GI50 (SNB-78) was 3.98 µM (inactive). The GI50 (SR) was 4.24 µM (inactive), the GI50 (SW-620) was 4.98 µM (inactive) and the GI50 (TK-10) was 12.6 µM (inactive). For the same molecule, the GI50 (U-251) was 4.06 µM (inactive), the GI50 (UACC-257) was 4.62 µM (inactive) and the GI50 (UACC-62) was 3.56 µM (inactive). For the same molecule, the GI50 (UO-31) was 18.2 µM (inactive) and the GI50 (XF498) was 8.43 µM (inactive).
